What was measured:
[1] = system: HCT116; assay: HCT116 IC50; format: cell-based; conditions: Homo sapiens, HCT-116
[2] = target: T1, HDAC-1 (Homo sapiens, UniProt Q13547); assay: HDAC inhibition assay (purified GST-HDAC protein); format: biochemical
T1 construct: made in house; host or cells: Sf9 or Sf21 insect cells (baculovirus, donor vector pFB-GSTX3)
Text: The baculovirus donor vector pFB-GSTX3 was used to generate a recombinant baculovirus that can express the HDAC polypeptide. Transfer vectors containing the HDAC coding region were transfected into the DH10Bac cell line (GIBCO) and plated on selective agar plates. Colonies without insertion of the fusion sequence into the viral genome (carried by the bacteria) were blue. Single, white colonies were picked and viral DNAs (bacmid) were isolated from the bacteria by standard plasmid purification procedures. Sf9 cells or Sf21 (American Type Culture Collection) cells were then transfected in […] flasks with the viral DNA using Cellfectin reagent.
Virus-containing media was collected from the transfected cell culture and used for infection to increase its titer. Virus-containing media obtained after two rounds of infection was used for large-scale protein expression. For large-scale protein expression 100 cm^2 round tissue culture plates were seeded with 5×10^7 cells/plate and infected with 1 mL of virus-containing media (at an approximately MOI of 5). After 3 days, the cells were scraped off the plate and centrifuged at 500 rpm for 5 minutes. Cell pellets from 10-20, 100 cm^2 plates, were re-suspended in 50 mL of ice-cold lysis buffer (25 mM tris-HCl, pH 7.5, 2 mM EDTA, 1% NP-40, 1 mM DTT, 1 mM P MSF). The cells were stirred on ice for 15 minutes and then centrifuged at 5,000 rpms for 20 minutes.
The centrifuged cell lysate was loaded onto a 2 mL glutathione-sepharose column (Pharmacia) and was washed thrice with 10 mL of 25 mM tris-HCl, pH 7.5, 2 mM EDTA, 1 mM DTT, 200 mM NaCl. The GST-tagged proteins were then eluted by 10 applications (1 mL each) of 25 mM tris-HCl, pH 7.5, 10 mM reduced-glutathione, 100 mM NaCl, 1 mM DTT, 10% glycerol and stored at −70° C.
HDAC assays with purified GST-HDAC protein were carried out in a final volume of 30 μL containing 15 ng of GST-HDAC protein, 20 mM tris-HCl, pH 7.5, 1 mM MnCl2, 10 mM MgCl2, 1 mM DTT, 3 μg/mL poly(Glu,Tyr) 4:1, 1% DMSO, 2.0 μM ATP (γ-[^33P]-ATP 0.1 μCi). The activity was assayed in the presence or absence of inhibitors. The assay was carried out in 96-well plates at ambient temperature for 15 minutes under conditions described below and terminated by the addition of 20 μL of 125 mM EDTA. Subsequently, 40 μL of the reaction mixture were transferred onto EMMOBILON-PVDF membrane (Millipore) previously soaked for 5 minutes with methanol, rinsed with water, then soaked for 5 minutes with 0.5% H3PO4 and mounted on vacuum manifold with disconnected vacuum source. After spotting all samples, a vacuum was connected and each well rinsed with 200 μL 0.5% H3PO4. Membranes were removed and washed four times on a shaker with 1.0% H3PO4, once with ethanol. Membranes were counted after drying at ambient temperature, mounting in Packard TopCount 96-well frame, and addition of 10 μL/well of MICROSCINT™ (Packard). IC50 values were calculated by linear regression analysis of the percentage inhibition of each compound in duplicate, at 4 concentrations (usually 0.01, 0.1, 1 and 10 μM).
• Input: 3×4 μL stopped assay on IMMOBILON membrane, not washed • Background (3 wells): assay with H2O instead of enzyme • Positive control (4 wells): 3% DMSO instead of compound • Bath control (1 well): no reaction mix
IC50 values were calculated by logarithmic regression analysis of the percentage inhibition of each compound at 4 concentrations (usually 3- or 10-fold dilution series starting at 10 μM). In each experiment, the actual inhibition by reference compound was used for normalization of IC50 values to the basis of an average value of the reference inhibitor: Normalized IC50=measured IC50 average ref IC50/measured ref IC50
Example: Reference inhibitor in experiment 0.4 μM, average 0.3 μM, Test compound in experiment 1.0 μM, normalization: 0.3/0.4=0.75 μM
For example, known HDAC inhibitors or a synthetic derivative thereof may be used as reference compounds.

T1 sequence (Q13547 whole entry, species assumed): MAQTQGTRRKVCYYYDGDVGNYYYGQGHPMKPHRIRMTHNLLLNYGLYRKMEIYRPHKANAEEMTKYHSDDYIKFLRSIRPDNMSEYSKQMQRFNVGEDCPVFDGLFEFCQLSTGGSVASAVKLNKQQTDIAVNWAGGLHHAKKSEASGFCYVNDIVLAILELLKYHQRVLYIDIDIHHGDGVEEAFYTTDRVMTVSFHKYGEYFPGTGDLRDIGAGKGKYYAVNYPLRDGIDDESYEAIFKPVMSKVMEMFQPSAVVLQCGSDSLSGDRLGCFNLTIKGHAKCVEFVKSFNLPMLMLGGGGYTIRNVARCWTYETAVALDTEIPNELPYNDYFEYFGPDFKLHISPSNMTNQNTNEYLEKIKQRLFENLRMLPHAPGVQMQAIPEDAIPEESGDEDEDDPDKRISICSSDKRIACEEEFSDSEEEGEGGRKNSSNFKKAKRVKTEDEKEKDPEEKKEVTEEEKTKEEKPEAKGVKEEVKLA

| Compound | IC50 [1] [nM] | IC50 [2] [nM] |
| --- | --- | --- |
| Cc1[nH]c2ccccc2c1CCN1CCCC1c1ccc(/C=C/C(=O)NO)cc1 (stereo not drawn) [Compound 1, (E)-N-Hydroxy-3-(4-{1-[2-(2-methyl-1H-indol-3-yl)-ethyl]-pyrrolidin-2-yl}-phenyl)-acrylamide] | 1 | 3 |
| O=C(/C=C/c1ccc(C2CCCN2CCCc2c[nH]c3ccccc23)cc1)NO (stereo not drawn) [Compound 2, (E)-N-Hydroxy-3-(4-{1-[3-(1H-indol-3-yl)-propyl]-pyrrolidin-2-yl}-phenyl)-acrylamide] | 50 | 10 |
| O=C(/C=C/c1ccc(C2CCCN2CCc2c[nH]c3ccccc23)cc1)NO (stereo not drawn) [Compound 3, (E)-N-Hydroxy-3-(4-{1-[2-(1H-indol-3-yl)-ethyl]-pyrrolidin-2-yl}-phenyl)-acrylamide] | 1.2 | 1 |
| Cc1cc2ccccc2n1CCN1CCCC1c1ccc(/C=C/C(=O)NO)cc1 (stereo not drawn) [Compound 4, (E)-N-Hydroxy-3-(4-{1-[2-(2-methyl-indol-1-yl)-ethyl]-pyrrolidin-2-yl}-phenyl)-acrylamide] | 10 | 10 |
| O=C(/C=C/c1ccc(C2CCCN2CCn2ccc3ccccc32)cc1)NO (stereo not drawn) [Compound 5, (E)-N-Hydroxy-3-{4-[1-(2-indol-1-yl-ethyl)-pyrrolidin-2-yl]-phenyl}-acrylamide] | 10 | 6 |
| COc1ccc2[nH]c(C)c(CCN3CCCC3c3ccc(/C=C/C(=O)NO)cc3)c2c1 (stereo not drawn) [Compound 6, (E)-N-Hydroxy-3-(4-{1-[2-(5-methoxy-2-methyl-1H-indol-3-yl)-ethyl]-pyrrolidin-2-yl}-phenyl)-acrylamide] | 1.2 | 2 |
| O=C(/C=C/c1ccc(C2CCCN2CCc2c(-c3ccccc3)[nH]c3ccccc23)cc1)NO (stereo not drawn) [Compound 7, (E)-N-Hydroxy-3-(4-{1-[2-(2-phenyl-1H-indol-3-yl)-ethyl]-pyrrolidin-2-yl}-phenyl)-acrylamide] | 3 | 12 |
| CC(C)(C)c1[nH]c2cc([N+](=O)[O-])ccc2c1CCN1CCCC1c1ccc(/C=C/C(=O)NO)cc1 (stereo not drawn) [Compound 9, (E)-3-(4-{1-[2-(2-tert-Butyl-6-nitro-1H-indol-3-yl)-ethyl]-pyrrolidin-2-yl}-phenyl)-N-hydroxy-acrylamide] | 0.5 | 7 |
| CC(C)(C)c1[nH]c2cc(NS(C)(=O)=O)ccc2c1CCN1CCCC1c1ccc(/C=C/C(=O)NO)cc1 (stereo not drawn) [Compound 10, (E)-3-(4-{1-[2-(2-tert-Butyl-6-methanesulfonylamino-1H-indol-3-yl)-ethyl]-pyrrolidin-2-yl}-phenyl)-N-hydroxy-acrylamide] | 2 | 3 |
| Cc1[nH]c2ccccc2c1CC(=O)N1CCCC1c1ccc(/C=C/C(=O)NO)cc1 (stereo not drawn) [Compound 12, (E)-N-Hydroxy-3-(4-{1-[2-(2-methyl-1H-indol-3-yl)-acetyl]-pyrrolidin-2-yl}-phenyl)-acrylamide] | 96 | 4 |
| O=C(/C=C/c1ccc(C2CCCN2CCc2ccccc2)cc1)NO (stereo not drawn) [Compound 19, (E)-N-Hydroxy-3-[4-(1-phenethyl-pyrrolidin-2-yl)-phenyl]-acrylamide] | 7 | 3 |
| O=C(/C=C/c1ccc(C2CCCN2CCc2ccc(O)cc2)cc1)NO (stereo not drawn) [Compound 20, (E)-N-Hydroxy-3-(4-{1-[2-(4-hydroxy-phenyl)-ethyl]-pyrrolidin-2-yl}-phenyl)-acrylamide] | 11 | 3 |
| O=C(/C=C/c1ccc([C@@H]2CCCN2CCc2ccc(F)cc2)cc1)NO [Compound 21, (E)-3-(4-{(S)-1-[2-(4-Fluoro-phenyl)-ethyl]-pyrrolidin-2-yl}-phenyl)-N-hydroxy-acrylamide] | 21 | 8 |
| O=C(/C=C/c1ccc([C@@H]2CCCN2CCc2ccc(Cl)cc2)cc1)NO [Compound 22, (E)-3-(4-{(S)-1-[2-(4-Chloro-phenyl)-ethyl]-pyrrolidin-2-yl}-phenyl)-N-hydroxy-acrylamide] | 13 | 7 |
| O=C(/C=C/c1ccc(C2CCCN2CCc2ccc(Cl)c(Cl)c2)cc1)NO (stereo not drawn) [Compound 23, (E)-3-(4-{1-[2-(3,4-Dichloro-phenyl)-ethyl]-pyrrolidin-2-yl}-phenyl)-N-hydroxy-acrylamide] | 97 | 19 |
| O=C(/C=C/c1ccc(C2CCCN2CCc2ccc([N+](=O)[O-])cc2)cc1)NO (stereo not drawn) [Compound 24, (E)-N-Hydroxy-3-(4-{1-[2-(4-nitro-phenyl)-ethyl]-pyrrolidin-2-yl}-phenyl)-acrylamide] | 43 | 8 |
| O=C(/C=C/c1ccc(C2CCCN2CCc2ccccc2Cl)cc1)NO (stereo not drawn) [Compound 25, (E)-3-(4-{1-[2-(2-Chloro-phenyl)-ethyl]-pyrrolidin-2-yl}-phenyl)-N-hydroxy-acrylamide] | 7 | 5 |
| O=C(/C=C/c1ccc(C2CCCN2CCc2ccc(Cl)cc2Cl)cc1)NO (stereo not drawn) [Compound 26, (E)-3-(4-{1-[2-(2,4-Dichloro-phenyl)-ethyl]-pyrrolidin-2-yl}-phenyl)-N-hydroxy-acrylamide] | 29 | 7 |
| O=C(/C=C/c1ccc(C2CCCN2CCc2ccccc2F)cc1)NO (stereo not drawn) [Compound 27, (E)-3-(4-{1-[2-(2-Fluoro-phenyl)-ethyl]-pyrrolidin-2-yl}-phenyl)-N-hydroxy-acrylamide] | 11 | 6 |
| O=C(/C=C/c1ccc(C2CCCN2CC(O)c2ccccc2)cc1)NO (stereo not drawn) [Compound 28, (E)-N-Hydroxy-3-{4-[1-(2-hydroxy-2-phenyl-ethyl)-pyrrolidin-2-yl]-phenyl}-acrylamide] | 85 | 25 |
| Cc1ccc(C(O)CN2CCCC2c2ccc(/C=C/C(=O)NO)cc2)cc1 (stereo not drawn) [Compound 29, (E)-N-Hydroxy-3-{4-[1-(2-hydroxy-2-p-tolyl-ethyl)-pyrrolidin-2-yl]-phenyl}-acrylamide] | 40 | 8 |
| COc1ccc(C(O)CN2CCCC2c2ccc(/C=C/C(=O)NO)cc2)cc1 (stereo not drawn) [Compound 30, (E)-N-Hydroxy-3-(4-{1-[2-hydroxy-2-(4-methoxy-phenyl)-ethyl]-pyrrolidin-2-yl}-phenyl)-acrylamide] | 46 | 14 |
| Cc1nn(CC2CCOCC2)c(C)c1CCN1CCC[C@H]1c1ccc(/C=C/C(=O)NO)cc1 [Compound 109, (E)-3-[4-((S)-1-{2-[3,5-Dimethyl-1-(tetrahydro-pyran-4-ylmethyl)-1H-pyrazol-4-yl]-ethyl}-pyrrolidin-2-yl)-phenyl]-N-hydroxy-acrylamide] | – | 3.2 |
| CC(C)(O)c1nn2ccccc2c1CCN1CCC[C@H]1c1ccc(CCC(=O)NO)cc1 [Compound 113, N-Hydroxy-3-[4-((S)-1-{2-[2-(1-hydroxy-1-methyl-ethyl)-pyrazolo[1,5-a]pyridin-3-yl]-ethyl}-pyrrolidin-2-yl)-phenyl]-propionamide] | – | 75 |
| Cc1n[nH]c(C)c1CCN1CCC[C@@H]1c1ccc(/C=C/C(=O)NO)cc1 [Compound 117, (E)-3-(4-{(R)-1-[2-(3,5-Dimethyl-1H-pyrazol-4-yl)-ethyl]-pyrrolidin-2-yl}-phenyl)-N-hydroxy-acrylamide] | – | 12 |
| Cc1n[nH]c(C)c1CCN1CCC[C@H]1c1ccc(CCC(=O)NO)cc1 [Compound 119, 3-(4-{(S)-1-[2-(3,5-Dimethyl-1H-pyrazol-4-yl)-ethyl]-pyrrolidin-2-yl}-phenyl)-N-hydroxy-propionamide] | – | 155 |

Source: patent US8349883B2, “Hydroxamate-based inhibitors of deacetylases B” (Novartis AG, priority 2008, dated 2013)
